A word on the MIC: it is the smallest concentration in the dilution series that meets the test's criterion for growth inhibition. Read a low MIC as inhibition by little substance.

MIC data for one compound are collected here from ChEMBL document CHEMBL3091403, “Desmethyl Macrolides: Synthesis and Evaluation of 4,8,10-Tridesmethyl Cethromycin” (2013).

Values after ≈ are worked out from the molar mass of the structure shown.

Common to all, as to format: functional
Assay [1] has as its system Staphylococcus aureus. Description: Antibacterial activity against Staphylococcus aureus UCN14 harboring ribosomal A2058U mutant.
The subject of assay [2] is Escherichia coli. Kind of assay: Antibacterial activity against wild-type Escherichia coli DK/pKK3535.
The test system of assay [3] is Staphylococcus aureus. Description: Antibacterial activity against Staphylococcus aureus ATCC 33591 harboring ribosomal ermA mutant.
For assay [4], the system named is Escherichia coli. Description: Antibacterial activity against Escherichia coli SQ171/2058G harboring ribosomal A2058G mutant.
Assay [5] deals with Escherichia coli. Description: Antibacterial activity against Escherichia coli DK/2058G harboring ribosomal A2058G mutant.

On to `CC[C@H]1OC(=O)[C@H](C)C(=O)C[C@@H](O[C@@H]2O[C@H](C)C[C@H](N(C)C)[C@H]2O)[C@](C)(OC/C=C/c2cnc3ccccc3c2)CCC(=O)C[C@H]2NC(=O)O[C@@]21C`, for which the MIC with Staphylococcus aureus [1] was greater than 256 µg/mL; in the assay on Escherichia coli [2], 2 µg/mL (≈ 2.76 µM); in the assay on Staphylococcus aureus [3] it was greater than 64 µg/mL; in the assay on Escherichia coli [4], greater than 256 µg/mL; against Escherichia coli [5] it was 1 µg/mL (≈ 1.38 µM).
